Read-outs that look alike come from different tables or passages of the source.
How the values were obtained:
[1] = target: JAK2 (Homo sapiens (Human), UniProt O60674); assay: LanthaScreen JAK biochemical assay (JAK2)
[2] = system: IL-4 induced STAT6 phosphorylation in THP-1 human monocytic cells; assay: Cellular JAK potency assay, THP-1
[3] = target: JAK1 (Homo sapiens (Human), UniProt P23458); assay: LanthaScreen JAK biochemical assay (JAK1)
[4] = IL-4 induced STAT6 phosphorylation, THP-1 cells
[5] = read-out: JAK 2 (pKi) (converted)
[6] = Homo sapiens, THP-1, read-out: THP-1 IL4 pIC50 (converted)
[7] = read-out: JAK 1 (pKi) (converted)
[8] = THP-1 cells, IL-4 induced STAT6 phosphorylation

Sequence of JAK1 (P23458 whole entry): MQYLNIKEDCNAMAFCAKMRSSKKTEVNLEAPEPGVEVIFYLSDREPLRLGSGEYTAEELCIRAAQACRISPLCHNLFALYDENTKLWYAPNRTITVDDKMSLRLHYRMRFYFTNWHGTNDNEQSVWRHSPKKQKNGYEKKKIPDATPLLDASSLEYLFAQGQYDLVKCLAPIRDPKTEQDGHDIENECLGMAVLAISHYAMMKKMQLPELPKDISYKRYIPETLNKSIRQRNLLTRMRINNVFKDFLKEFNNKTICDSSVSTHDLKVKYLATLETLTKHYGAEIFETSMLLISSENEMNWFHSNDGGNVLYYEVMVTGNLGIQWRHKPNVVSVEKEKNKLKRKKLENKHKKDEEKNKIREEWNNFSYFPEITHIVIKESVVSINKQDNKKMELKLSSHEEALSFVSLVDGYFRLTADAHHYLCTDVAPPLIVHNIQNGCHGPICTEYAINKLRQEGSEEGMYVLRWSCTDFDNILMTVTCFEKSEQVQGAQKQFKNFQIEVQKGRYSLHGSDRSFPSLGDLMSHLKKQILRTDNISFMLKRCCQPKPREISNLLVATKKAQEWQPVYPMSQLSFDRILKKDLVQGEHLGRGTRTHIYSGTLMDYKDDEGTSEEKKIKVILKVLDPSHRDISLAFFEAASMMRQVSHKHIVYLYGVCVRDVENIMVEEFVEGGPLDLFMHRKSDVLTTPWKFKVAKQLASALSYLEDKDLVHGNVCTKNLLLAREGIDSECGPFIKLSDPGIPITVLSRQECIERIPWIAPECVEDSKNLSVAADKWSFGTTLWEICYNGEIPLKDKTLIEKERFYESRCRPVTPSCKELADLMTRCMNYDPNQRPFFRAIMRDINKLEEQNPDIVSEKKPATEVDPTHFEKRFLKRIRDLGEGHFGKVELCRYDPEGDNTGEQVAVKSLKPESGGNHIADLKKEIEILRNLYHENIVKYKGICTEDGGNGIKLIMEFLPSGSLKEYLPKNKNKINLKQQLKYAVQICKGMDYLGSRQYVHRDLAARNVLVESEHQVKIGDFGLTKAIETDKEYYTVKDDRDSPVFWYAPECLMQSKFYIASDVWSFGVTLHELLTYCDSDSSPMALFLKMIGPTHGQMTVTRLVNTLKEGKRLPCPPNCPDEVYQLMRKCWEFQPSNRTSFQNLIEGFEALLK
Sequence of JAK2 (O60674 whole entry): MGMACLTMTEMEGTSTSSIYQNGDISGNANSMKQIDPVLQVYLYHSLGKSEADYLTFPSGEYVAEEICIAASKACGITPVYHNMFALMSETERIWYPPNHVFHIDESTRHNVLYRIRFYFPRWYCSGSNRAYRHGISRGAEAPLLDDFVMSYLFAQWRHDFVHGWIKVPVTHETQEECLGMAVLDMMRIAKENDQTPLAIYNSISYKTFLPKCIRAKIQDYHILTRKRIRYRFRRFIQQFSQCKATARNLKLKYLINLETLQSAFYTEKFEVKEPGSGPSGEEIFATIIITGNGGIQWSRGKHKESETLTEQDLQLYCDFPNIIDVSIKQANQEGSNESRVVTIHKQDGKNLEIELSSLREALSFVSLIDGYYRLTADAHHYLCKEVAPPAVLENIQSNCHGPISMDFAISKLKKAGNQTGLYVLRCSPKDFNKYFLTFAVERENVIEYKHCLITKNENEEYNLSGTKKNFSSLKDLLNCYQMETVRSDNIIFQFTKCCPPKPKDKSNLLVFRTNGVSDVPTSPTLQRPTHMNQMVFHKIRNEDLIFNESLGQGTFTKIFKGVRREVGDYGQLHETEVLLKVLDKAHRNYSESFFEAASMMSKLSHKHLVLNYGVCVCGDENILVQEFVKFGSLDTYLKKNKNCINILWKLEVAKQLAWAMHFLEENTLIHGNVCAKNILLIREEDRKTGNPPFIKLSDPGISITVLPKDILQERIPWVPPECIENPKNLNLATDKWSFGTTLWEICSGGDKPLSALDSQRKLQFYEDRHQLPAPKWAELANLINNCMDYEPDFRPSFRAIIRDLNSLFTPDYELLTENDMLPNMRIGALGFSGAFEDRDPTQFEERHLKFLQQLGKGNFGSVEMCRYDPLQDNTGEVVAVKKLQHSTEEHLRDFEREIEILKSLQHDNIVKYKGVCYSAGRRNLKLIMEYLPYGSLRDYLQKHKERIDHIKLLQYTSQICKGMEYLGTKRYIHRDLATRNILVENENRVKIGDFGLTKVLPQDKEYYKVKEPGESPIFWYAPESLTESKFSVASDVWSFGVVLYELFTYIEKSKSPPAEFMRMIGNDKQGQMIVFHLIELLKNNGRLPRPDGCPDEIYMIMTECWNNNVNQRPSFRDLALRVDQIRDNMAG

| SMILES | JAK 2 (pKi) [1] | THP-1 IL4 pIC50 [2, 4] | JAK 1 (pKi) [3] | Ki [1, 5] [nM] | IC50 [2, 6] [nM] | further results |
| --- | --- | --- | --- | --- | --- | --- |
| Cc1cc(Nc2cc3ncccc3c(N[C@@H]3C[C@H]4CC[C@@H](C3)N4CC3CCOCC3)n2)n[nH]1 [Example 1-20] | B (B represents a pKi value between 9 and 10 (Ki between 1 nM and 0.1 nM)) | B (B represents a pEC50 value between 6.7 and 7.5 (EC50 between 200 nM and 32 nM)) | B (B represents a pKi value between 9 and 10 (Ki between 1 nM and 0.1 nM)) |  |  |  |
| Cc1cc(Nc2cc3ncccc3c(N[C@@H]3C[C@H]4CCC[C@@H](C3)N4CC(=O)OC(C)(C)C)n2)n[nH]1 [Example 1-36] | B (B represents a pKi value between 9 and 10 (Ki between 1 nM and 0.1 nM)) | B (B represents a pEC50 value between 6.7 and 7.5 (EC50 between 200 nM and 32 nM)) | B (B represents a pKi value between 9 and 10 (Ki between 1 nM and 0.1 nM)) |  |  |  |
| Cc1cc(Nc2cc3ncccc3c(N[C@@H]3C[C@H]4CCC[C@@H](C3)N4Cc3ccncc3)n2)n[nH]1 [Example 1-48] | A (A represents a pKi value≥10 (Ki≤0.1 nM)) | B (B represents a pEC50 value between 6.7 and 7.5 (EC50 between 200 nM and 32 nM)) | A (A represents a pKi value≥10 (Ki≤0.1 nM)) |  |  |  |
| Cc1cc(Nc2cc3ncccc3c(N[C@@H]3C[C@H]4CCC[C@@H](C3)N4C3CCCOC3=O)n2)n[nH]1 (stereo partly drawn) [Example 1-53] | B (B represents a pKi value between 9 and 10 (Ki between 1 nM and 0.1 nM)) | B (B represents a pEC50 value between 6.7 and 7.5 (EC50 between 200 nM and 32 nM)) | B (B represents a pKi value between 9 and 10 (Ki between 1 nM and 0.1 nM)) |  |  |  |
| Cc1cc(Nc2cc3ncccc3c(N[C@@H]3C[C@H]4CCC[C@@H](C3)N4C[C@H]3CCC(=O)O3)n2)n[nH]1 [Example 1-57] | B (B represents a pKi value between 9 and 10 (Ki between 1 nM and 0.1 nM)) | B (B represents a pEC50 value between 6.7 and 7.5 (EC50 between 200 nM and 32 nM)) | B (B represents a pKi value between 9 and 10 (Ki between 1 nM and 0.1 nM)) |  |  |  |
| Cc1cc(Nc2cc3ncccc3c(N[C@@H]3C[C@H]4CC[C@@H](C3)N4C(=O)C3(C)CCCC3)n2)n[nH]1 [Example 2-10] |  |  |  | 0.1 to 1 | 31.6 to 200 | Ki [3]: 0.1 to 1 nM |
| Cc1cc(Nc2cc3ncccc3c(N[C@@H]3C[C@H]4CC[C@@H](C3)N4C(=O)Cc3ccccc3)n2)n[nH]1 [Example 2-11] | B (B represents a pKi value between 9 and 10 (Ki between 1 nM and 0.1 nM)) | B (B represents a pEC50 value between 6.7 and 7.5 (EC50 between 200 nM and 32 nM)) | B (B represents a pKi value between 9 and 10 (Ki between 1 nM and 0.1 nM)) |  |  |  |
| Cc1cc(Nc2cc3ncccc3c(N[C@@H]3C[C@H]4CC[C@@H](C3)N4C(=O)c3ccccc3)n2)n[nH]1 [Example 2-12] |  |  |  | 0.1 to 1 | 31.6 to 200 | Ki [3, 7]: 0.1 to 1 nM |
| Cc1cc(Nc2cc3ncccc3c(N[C@@H]3C[C@H]4CC[C@@H](C3)N4C(=O)c3ccncc3)n2)n[nH]1 [Example 2-13] |  |  |  | 0.1 to 1 | 31.6 to 200 | Ki [3, 7]: 0.1 to 1 nM |
| Cc1cc(Nc2cc3ncccc3c(N[C@@H]3C[C@H]4CC[C@@H](C3)N4C(=O)c3cccnc3)n2)n[nH]1 [Example 2-14] |  |  |  | 0.1 to 1 | > 200 | Ki [3]: 0.1 to 1 nM |
| CCC(=O)N1[C@@H]2CCC[C@H]1C[C@H](Nc1nc(Nc3cc(C)[nH]n3)cc3ncccc13)C2 [Example 2-15] | B (B represents a pKi value between 9 and 10 (Ki between 1 nM and 0.1 nM)) | A (A represents a pEC50 value≥7.5 (EC50≤32 nM)) | B (B represents a pKi value between 9 and 10 (Ki between 1 nM and 0.1 nM)) |  |  |  |
| CCOC(=O)N1[C@@H]2CC[C@H]1C[C@H](Nc1nc(Nc3cc(C)[nH]n3)cc3ncccc13)C2 [Example 3-1] |  |  |  | 0.1 to 1 | < 31.6 | Ki [3, 7]: 0.1 to 1 nM |
| Cc1cc(Nc2cc3ncccc3c(N[C@@H]3C[C@H]4CC[C@@H](C3)N4C(=O)OC(C)C)n2)n[nH]1 [Example 3-2] |  |  |  |  | < 31.6 | Ki [1]: 0.1 to 1 nM; Ki [3]: 0.1 to 1 nM |
| C=CCOC(=O)N1[C@@H]2CC[C@H]1C[C@H](Nc1nc(Nc3cc(C)[nH]n3)cc3ncccc13)C2 [Example 3-4] | B (B represents a pKi value between 9 and 10 (Ki between 1 nM and 0.1 nM)) | A (A represents a pEC50 value≥7.5 (EC50≤32 nM)) | B (B represents a pKi value between 9 and 10 (Ki between 1 nM and 0.1 nM)) |  |  |  |
| Cc1cc(Nc2cc3ncccc3c(N[C@@H]3C[C@H]4CCC[C@@H](C3)N4C(=O)OCC(C)C)n2)n[nH]1 [Example 3-7] | B (B represents a pKi value between 9 and 10 (Ki between 1 nM and 0.1 nM)) | B (B represents a pEC50 value between 6.7 and 7.5 (EC50 between 200 nM and 32 nM)) | B (B represents a pKi value between 9 and 10 (Ki between 1 nM and 0.1 nM)) |  |  |  |
| C=CCOC(=O)N1[C@@H]2CCC[C@H]1C[C@H](Nc1nc(Nc3cc(C)[nH]n3)cc3ncccc13)C2 [Example 3-8] | B (B represents a pKi value between 9 and 10 (Ki between 1 nM and 0.1 nM)) | A (A represents a pEC50 value≥7.5 (EC50≤32 nM)) | B (B represents a pKi value between 9 and 10 (Ki between 1 nM and 0.1 nM)) |  |  |  |
| COCCOC(=O)N1[C@@H]2CCC[C@H]1C[C@H](Nc1nc(Nc3cc(C)[nH]n3)cc3ncccc13)C2 [Example 3-9] | B (B represents a pKi value between 9 and 10 (Ki between 1 nM and 0.1 nM)) | A (A represents a pEC50 value≥7.5 (EC50≤32 nM)) | B (B represents a pKi value between 9 and 10 (Ki between 1 nM and 0.1 nM)) |  |  |  |
| Cc1cc(Nc2cc3ncccc3c(N[C@@H]3C[C@H]4CC[C@@H](C3)N4S(=O)(=O)C3CCCC3)n2)n[nH]1 [Example 4-5] |  |  |  |  | < 31.6 | Ki [1]: 0.1 to 1 nM; Ki [3, 7]: 0.1 to 1 nM |
| Cc1cc(Nc2cc3ncccc3c(N[C@@H]3C[C@H]4CC[C@@H](C3)N4S(=O)(=O)N3CCC3)n2)n[nH]1 [Example 4-6] |  |  |  |  | < 31.6 | Ki [1]: 0.1 to 1 nM; Ki [3, 7]: 0.1 to 1 nM |
| Cc1cc(Nc2cc3ncccc3c(N[C@@H]3C[C@H]4CC[C@@H](C3)N4S(=O)(=O)C3CNC3)n2)n[nH]1 [Example 4-9] |  |  |  | 0.1 to 1 | > 200 | Ki [3]: 0.1 to 1 nM |
| Cc1cc(Nc2cc3ncccc3c(N[C@@H]3C[C@H]4CCC[C@@H](C3)N4S(=O)(=O)Cc3ccccc3)n2)n[nH]1 [Example 4-24] | B (B represents a pKi value between 9 and 10 (Ki between 1 nM and 0.1 nM)) | B (B represents a pEC50 value between 6.7 and 7.5 (EC50 between 200 nM and 32 nM)) | B (B represents a pKi value between 9 and 10 (Ki between 1 nM and 0.1 nM)) |  |  |  |
| Cc1ccc(S(=O)(=O)N2[C@@H]3CCC[C@H]2C[C@H](Nc2nc(Nc4cc(C)[nH]n4)cc4ncccc24)C3)cn1 [Example 4-25] | B (B represents a pKi value between 9 and 10 (Ki between 1 nM and 0.1 nM)) | A (A represents a pEC50 value≥7.5 (EC50≤32 nM)) | B (B represents a pKi value between 9 and 10 (Ki between 1 nM and 0.1 nM)) |  |  |  |
| Cc1cc(Nc2cc3nc(CN4CCC(F)(F)CC4)ccc3c(N[C@@H]3C[C@H]4CC[C@@H](C3)N4S(=O)(=O)c3cncc(F)c3)n2)n[nH]1 [Example 5-31] |  |  |  | 0.1 to 1 | 31.6 to 200 | Ki [3]: 0.1 to 1 nM |
| Cc1cc(Nc2cc3nc(CN4CCN(C)CC4)ccc3c(N[C@@H]3C[C@H]4CC[C@@H](C3)N4S(=O)(=O)c3cncc(F)c3)n2)n[nH]1 [Example 5-40] |  |  |  | 0.1 to 1 | 31.6 to 200 | Ki [3, 7]: 0.1 to 1 nM |
| Cc1cc(Nc2cc3nc(CS(C)(=O)=O)ccc3c(N[C@@H]3C[C@H]4CC[C@@H](C3)N4CCCF)n2)n[nH]1 [Example 5-42] | B (B represents a pKi value between 9 and 10 (Ki between 1 nM and 0.1 nM)) | C (C represents a pEC50 value<6.7 (EC50>200 nM)) | B (B represents a pKi value between 9 and 10 (Ki between 1 nM and 0.1 nM)) |  |  |  |
| COc1cnc2cc(Nc3cc(C)[nH]n3)nc(N[C@@H]3C[C@H]4CC[C@@H](C3)N4CCCC#N)c2c1 [Example 6-12] | B (B represents a pKi value between 9 and 10 (Ki between 1 nM and 0.1 nM)) |  | B (B represents a pKi value between 9 and 10 (Ki between 1 nM and 0.1 nM)) |  |  | THP-1 IL4 pIC50 [2, 8]: B (B represents a pEC50 value between 6.7 and 7.5 (EC50 between 200 nM and 32 nM)) |
| COC(=O)c1cnc2cc(Nc3cc(C)[nH]n3)nc(N[C@@H]3C[C@H]4CC[C@@H](C3)N4CCC#N)c2c1 [Example 6-32] | A (A represents a pKi value≥10 (Ki≤0.1 nM)) |  | A (A represents a pKi value≥10 (Ki≤0.1 nM)) |  |  | THP-1 IL4 pIC50 [2, 8]: A (A represents a pEC50 value≥7.5 (EC50≤32 nM)) |
| CCC(=O)N1[C@@H]2CC[C@H]1C[C@H](Nc1nc(Nc3cc(C)[nH]n3)cc3ncc(C(=O)OC)cc13)C2 [Example 6-36] |  |  |  | 0.1 to 1 | 31.6 to 200 | Ki [3, 7]: 0.1 to 1 nM |

Source: US10072026B2, “Crystalline form of 3-((1R,3s,5S)-3-((7-((5-methyl-1H-pyrazol-3-yl)amino)-1,6-naphthyridin-5-yl)amino)-8-azabicyclo[3.2.1]octan-8-yl)propanenitrile” (priority 2015, dated 2018)
